# Data published in PubChem BioAssay (NCI).
#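 Values below derive from 48-hour exposures of cells grown in 96-well plates, with endpoints linearly interpolated between the two concentrations bracketing the appropriate inhibition level. TGI is the concentration that stops growth completely.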
# Assays:
# Experiment in all cases: NCI tumour cell line growth inhibition, 48 h
# [1] = test system: 786-0 renal
# [2] = test system: A498 renal
# [3] = test system: A549 NSCLC
# [4] = test system: ACHN renal
# [5] = test system: CAKI-1 renal
# [6] = test system: CCRF-CEM leukemia
# [7] = test system: COLO 205 colon
# [8] = test system: DLD-1 colon
# [9] = test system: DMS 114 small cell lung
# [10] = test system: DMS 273 small cell lung
# [11] = test system: EKVX NSCLC
# [12] = test system: HCC-2998 colon
# [13] = test system: HCT-116 colon
# [14] = test system: HCT-15 colon
# [15] = test system: HL-60(TB) leukemia
# [16] = test system: HOP-18 NSCLC
# [17] = test system: HOP-62 NSCLC
# [18] = test system: HOP-92 NSCLC
# [19] = test system: HT29 colon
# [20] = test system: IGROV1 ovarian
# [21] = test system: K-562 leukemia
# [22] = test system: KM12 colon
# [23] = test system: KM20L2 colon
# [24] = test system: LOX IMVI melanoma
# [25] = test system: LXFL 529 NSCLC
# [26] = test system: M14 melanoma
# [27] = test system: M19-MEL melanoma
# [28] = test system: MALME-3M melanoma
# [29] = test system: MOLT-4 leukemia
# [30] = test system: NCI-H226 lung
# [31] = test system: NCI-H23 lung
# [32] = test system: NCI-H460 lung
# [33] = test system: NCI-H522 lung
# [34] = test system: OVCAR-3 ovarian
# [35] = test system: OVCAR-4 ovarian
# [36] = test system: OVCAR-5 ovarian
# [37] = test system: OVCAR-8 ovarian
# [38] = test system: RPMI-8226 leukemia
# [39] = test system: SF-268 CNS
# [40] = test system: SF-295 CNS
# [41] = test system: SF-539 CNS
# [42] = test system: SK-MEL-2 melanoma
# [43] = test system: SK-MEL-28 melanoma
# [44] = test system: SK-MEL-5 melanoma
# [45] = test system: SK-OV-3 ovarian
# [46] = test system: SN12C renal
# [47] = test system: SNB-19 CNS
# [48] = test system: SNB-75 CNS
# [49] = test system: SNB-78 CNS
# [50] = test system: SR leukemia
# [51] = test system: SW-620 colon
# [52] = test system: TK-10 renal
# [53] = test system: U251 CNS
# [54] = test system: UACC-257 melanoma
# [55] = test system: UACC-62 melanoma
# [56] = test system: UO-31 renal
# [57] = test system: XF 498 CNS
# [58] = test system: RXF-631 renal
smiles,measurement,setting,value
COC(=O)C1=C(C(=O)OC)SC(=CC#CC=C2SC(C(=O)OC)=C(C(=O)OC)S2)S1,TGI,[1],18.2 µM
same,TGI,[2],34.7 µM
same,TGI,[3],> 100 µM
same,TGI,[4],34.6 µM
same,TGI,[5],> 68.3 µM
same,TGI,[6],> 100 µM
same,TGI,[7],> 54.9 µM
same,TGI,[8],> 54 µM
same,TGI,[9],> 60.7 µM
same,TGI,[10],38.4 µM
same,TGI,[11],> 100 µM
same,TGI,[12],> 100 µM
same,TGI,[13],32.3 µM
same,TGI,[14],> 45.1 µM
same,TGI,[15],> 100 µM
same,TGI,[16],45.9 µM
same,TGI,[17],12.2 µM
same,TGI,[18],35.2 µM
same,TGI,[19],> 100 µM
same,TGI,[20],45.8 µM
same,TGI,[21],> 100 µM
same,TGI,[22],> 100 µM
same,TGI,[23],71.6 µM
same,TGI,[24],44.2 µM
same,TGI,[25],> 57.4 µM
same,TGI,[26],> 76.2 µM
same,TGI,[27],> 100 µM
same,TGI,[28],64.1 µM
same,TGI,[29],> 100 µM
same,TGI,[30],35.4 µM
same,TGI,[31],17.8 µM
same,TGI,[32],> 100 µM
same,TGI,[33],54.8 µM
same,TGI,[34],17 µM
same,TGI,[35],35.3 µM
same,TGI,[36],> 100 µM
same,TGI,[37],20.8 µM
same,TGI,[38],> 100 µM
same,TGI,[39],> 60.1 µM
same,TGI,[40],11.8 µM
same,TGI,[41],4.86 µM
same,TGI,[42],64.3 µM
same,TGI,[43],> 63.2 µM
same,TGI,[44],> 86.5 µM
same,TGI,[45],31.5 µM
same,TGI,[46],> 52.5 µM
same,TGI,[47],26.2 µM
same,TGI,[48],19.3 µM
same,TGI,[49],48.6 µM
same,TGI,[50],> 100 µM
same,TGI,[51],> 52 µM
same,TGI,[52],23.9 µM
same,TGI,[53],33.1 µM
same,TGI,[54],> 100 µM
same,TGI,[55],29.1 µM
same,TGI,[56],14.1 µM
same,TGI,[57],19.1 µM
COC(=O)[C@]12CCC(C)[C@H](C)[C@H]1C1=CCC3[C@@]4(C)CC[C@H](OC(C)=O)C(C)(C)C4CC[C@@]3(C)C1(C)C(O)C2 (stereo partly specified),TGI,[1],> 100 µM
same,TGI,[2],> 100 µM
same,TGI,[3],> 100 µM
same,TGI,[4],> 100 µM
same,TGI,[5],> 100 µM
same,TGI,[6],> 100 µM
same,TGI,[7],> 100 µM
same,TGI,[8],> 100 µM
same,TGI,[9],> 100 µM
same,TGI,[10],> 100 µM
same,TGI,[11],> 100 µM
same,TGI,[12],> 100 µM
same,TGI,[13],> 100 µM
same,TGI,[16],> 100 µM
same,TGI,[17],> 100 µM
same,TGI,[18],> 100 µM
same,TGI,[19],> 100 µM
same,TGI,[20],> 100 µM
same,TGI,[21],> 100 µM
same,TGI,[22],> 100 µM
same,TGI,[23],> 100 µM
same,TGI,[24],> 100 µM
same,TGI,[25],> 100 µM
same,TGI,[26],> 100 µM
same,TGI,[27],> 100 µM
same,TGI,[28],> 100 µM
same,TGI,[29],> 100 µM
same,TGI,[30],83.1 µM
same,TGI,[31],> 100 µM
same,TGI,[32],> 100 µM
same,TGI,[33],> 100 µM
same,TGI,[34],> 100 µM
same,TGI,[35],> 100 µM
same,TGI,[36],> 100 µM
same,TGI,[37],> 100 µM
same,TGI,[38],> 100 µM
same,TGI,[39],> 100 µM
same,TGI,[40],> 100 µM
same,TGI,[41],> 100 µM
same,TGI,[42],> 100 µM
same,TGI,[43],> 100 µM
same,TGI,[44],> 100 µM
same,TGI,[45],> 100 µM
same,TGI,[46],> 100 µM
same,TGI,[47],> 100 µM
same,TGI,[48],> 100 µM
same,TGI,[49],> 100 µM
same,TGI,[50],> 100 µM
same,TGI,[51],> 100 µM
same,TGI,[52],> 100 µM
same,TGI,[53],> 100 µM
same,TGI,[54],> 100 µM
same,TGI,[55],> 100 µM
same,TGI,[56],> 100 µM
same,TGI,[57],> 100 µM
COc1ccc(/C=C\c2cc(OC)c(O[Si](C)(C)C(C)(C)C)c(OC)c2)cc1,TGI,[1],> 100 µM
same,TGI,[2],81.1 µM
same,TGI,[3],> 100 µM
same,TGI,[4],> 100 µM
same,TGI,[5],> 100 µM
same,TGI,[6],49.8 µM
same,TGI,[7],> 100 µM
same,TGI,[8],> 100 µM
same,TGI,[9],91.4 µM
same,TGI,[10],> 100 µM
same,TGI,[11],> 100 µM
same,TGI,[12],> 100 µM
same,TGI,[13],> 100 µM
same,TGI,[17],> 100 µM
same,TGI,[18],> 100 µM
same,TGI,[19],> 100 µM
same,TGI,[20],> 100 µM
same,TGI,[21],> 100 µM
same,TGI,[22],> 100 µM
same,TGI,[23],> 100 µM
same,TGI,[25],> 100 µM
same,TGI,[26],> 100 µM
same,TGI,[27],> 100 µM
same,TGI,[28],> 100 µM
same,TGI,[29],38.8 µM
same,TGI,[30],> 100 µM
same,TGI,[31],> 100 µM
same,TGI,[32],> 100 µM
same,TGI,[33],> 100 µM
same,TGI,[34],> 100 µM
same,TGI,[35],> 100 µM
same,TGI,[36],> 100 µM
same,TGI,[37],> 100 µM
same,TGI,[38],83.3 µM
same,TGI,[58],> 100 µM
same,TGI,[39],> 100 µM
same,TGI,[41],> 100 µM
same,TGI,[42],65.2 µM
same,TGI,[43],43.4 µM
same,TGI,[45],> 100 µM
same,TGI,[46],> 100 µM
same,TGI,[47],> 100 µM
same,TGI,[48],> 100 µM
same,TGI,[50],56.2 µM
same,TGI,[51],> 100 µM
same,TGI,[53],42.2 µM
same,TGI,[54],62.4 µM
same,TGI,[55],> 100 µM
same,TGI,[56],> 100 µM
same,TGI,[57],49.5 µM
O=C(c1ccncc1)n1nc(-c2ccccc2)c(N=Nc2ccccc2[N+](=O)[O-])c1-c1ccccc1,TGI,[1],> 100 µM
same,TGI,[2],> 100 µM
same,TGI,[3],> 100 µM
same,TGI,[5],> 100 µM
same,TGI,[6],> 100 µM
same,TGI,[7],> 100 µM
same,TGI,[8],> 100 µM
same,TGI,[9],> 100 µM
same,TGI,[10],> 100 µM
same,TGI,[11],> 100 µM
same,TGI,[12],> 100 µM
same,TGI,[13],> 100 µM
same,TGI,[15],> 100 µM
same,TGI,[17],> 100 µM
same,TGI,[18],> 100 µM
same,TGI,[19],> 100 µM
same,TGI,[20],> 100 µM
same,TGI,[21],> 100 µM
same,TGI,[22],> 100 µM
same,TGI,[25],> 100 µM
same,TGI,[26],> 100 µM
same,TGI,[27],> 100 µM
same,TGI,[28],> 100 µM
same,TGI,[29],> 100 µM
same,TGI,[31],> 100 µM
same,TGI,[33],> 100 µM
same,TGI,[34],> 100 µM
same,TGI,[35],> 100 µM
same,TGI,[37],> 100 µM
same,TGI,[38],> 100 µM
same,TGI,[58],> 100 µM
same,TGI,[39],> 100 µM
same,TGI,[40],> 100 µM
same,TGI,[41],> 100 µM
same,TGI,[42],> 100 µM
same,TGI,[43],> 100 µM
same,TGI,[44],> 100 µM
same,TGI,[45],> 100 µM
same,TGI,[46],> 100 µM
same,TGI,[47],> 100 µM
same,TGI,[48],> 100 µM
same,TGI,[49],> 100 µM
same,TGI,[50],> 100 µM
same,TGI,[51],> 100 µM
same,TGI,[52],> 100 µM
same,TGI,[54],> 100 µM
same,TGI,[55],> 100 µM
same,TGI,[56],79.9 µM
same,TGI,[57],> 100 µM
